Measurements reported in US6855710B2, “Substituted indolines with an inhibitory effect on various kinases and complexes of CDKs” (Boehringer Ingelheim Pharma KG, priority 1998, dated 2005).

SMILES | melting point
CC(=O)N1C(=O)/C(=C(\Nc2ccc(CNC(=O)OC(C)(C)C)cc2)c2ccc(CN3C(=O)c4ccccc4C3=O)cc2)c2cc([N+](=O)[O-])ccc21 [Example 146, (Z)-3-[1-(4-tert.butoxycarbonylaminomethyl-phenylamino)-1-(4-phthalimidomethyl-phenyl)-methylidene]-1-acetyl-5-nitro-2-indolinone] | 125 °C (dec.)
CN(C)CC(=O)N(C)c1ccc(N/C(=C2\C(=O)Nc3ccccc32)c2ccccc2)cc1.Cl | 290 to 292 °C
CCCCS(=O)(=O)N(CCN(C)C)c1ccc(N/C(=C2\C(=O)Nc3ccccc32)c2ccccc2)cc1 [Example 453, (Z)-3-[1-(4-(N-(2-dimethylaminoethyl)-N-butylsulphonyl-amino)-phenylamino)-1-phenyl-methylidene]-2-indolinone] | 225 to 227 °C
CCOC(=O)CNC(=O)c1ccc(N/C(=C2\C(=O)Nc3ccccc32)c2ccccc2)cc1 [Example 392, (Z)-3-{1-[4-(ethoxycarbonylmethylaminocarbonyl)-phenylamino]-1-phenyl-methylidene}-2-indolinone] | 235 to 237 °C
CCOC(=O)COc1ccc(N/C(=C2\C(=O)Nc3ccccc32)c2ccccc2)cc1 [Example 289, (Z)-3-{1-[4-(ethyloxycarbonylmethyloxy)-phenylamino]-1-phenyl-methylidene}-2-indolinone] | 175 to 177 °C
CNC(=O)CN(c1cccc(N/C(=C2\C(=O)Nc3ccccc32)c2ccccc2)c1)S(C)(=O)=O [Example 320, (Z)-3-{1-[3-(N-methylaminocarbonylmethyl-N-methylsulphonyl-amino)-phenylamino]-1-phenyl-methylidene}-2-indolinone] | 163 °C
CN(C)CCN(C=O)c1ccc(N/C(=C2\C(=O)Nc3ccccc32)c2ccccc2)cc1 [Example 339, (Z)-3-{1-[4-(N-(2-dimethylaminoethyl)-N-formyl-amino)-phenylamino]-1-phenyl-methylidene}-2-indolinone] | 246 to 248 °C
COC(=O)c1ccc(/C(Nc2ccc(CN3CCCCC3)cc2)=C2/C(=O)Nc3ccc([N+](=O)[O-])cc32)cc1 [Example 444, (Z)-3-[1-(4-piperidinomethyl-phenylamino)-1-(4-methoxycarbonyl-phenyl)-methylidene]-5-nitro-2-indolinone] | 178 to 183 °C
Cc1cccc(N/C(=C2\C(=O)Nc3ccccc32)c2ccccc2)c1 [Example 6, (Z)-3-[1-(3-methyl-phenylamino)-1-phenyl-methylidene]-2-indolinone] | 218 to 220 °C
CCCCNCc1ccc(N/C(=C2\C(=O)Nc3ccc([N+](=O)[O-])cc32)c2ccccc2)cc1 [Example 166, (Z)-3-[1-(4-butylaminomethyl-phenylamino)-1-phenyl-methylidene]-5-nitro-2-indolinone] | 183 °C
CN(C)CC(=O)Nc1ccc(N/C(=C2\C(=O)Nc3ccccc32)c2ccccc2)cc1 [Example 41, (Z)-3-[1-(4-dimethylaminomethylcarbonylamino-phenylamino)-1-phenyl-methylidene]-2-indolinone] | 234 to 236 °C
CC(C)(C)OC(=O)Nc1ccc(N/C(=C2\C(=O)Nc3ccc([N+](=O)[O-])cc32)c2ccccc2)cc1 [Example 90, (Z)-3-[1-(4-tert.butoxycarbonylamino-phenylamino)-1-phenyl-methylidene]-5-nitro-2-indolinone] | 235 to 237 °C (dec.)
O=C1Nc2ccccc2/C1=C(/Nc1ccc(OCCN2CCCCC2)cc1)c1ccccc1 [Example 285, (Z)-3-{1-[4-(2-piperidinoethyloxy)-phenylamino]-1-phenyl-methylidene}-2-indolinone] | 198 to 200 °C
CN(C(=O)CN1CCN(Cc2ccccc2)CC1)c1ccc(N/C(=C2\C(=O)Nc3ccccc32)c2ccccc2)cc1 [Example 53, (Z)-3-{1-[4-(N-(4-benzylpiperazinomethylcarbonyl)-N-methyl-amino)-phenylamino]-1-phenyl-methylidene}-2-indolinone] | 157 to 158 °C
CN(C)C(=O)CCNCc1ccc(N/C(=C2\C(=O)Nc3ccc([N+](=O)[O-])cc32)c2ccccc2)cc1 [Example 243, (Z)-3-{1-[4-(2-dimethylaminocarbonyl-ethylaminomethyl)-phenylamino]-1-phenyl-methylidene}-5-nitro-2-indolinone] | 215 to 217 °C
CN(C)Cc1ccc(N/C(=C2\C(=O)Nc3ccc([N+](=O)[O-])cc32)c2ccc(Cl)cc2)cc1 [Example 222, (Z)-3-[1-(4-dimethylaminomethyl-phenylamino)-1-(4-chlorophenyl)-methylidene]-5-nitro-2-indolinone] | 311 °C
CC1CCN(Cc2ccc(N/C(=C3\C(=O)Nc4ccc([N+](=O)[O-])cc43)c3ccccc3)cc2)CC1 [Example 169, (Z)-3-{1-[4-(4-methylpiperidinomethyl)-phenylamino]-1-phenyl-methylidene}-5-nitro-2-indolinone] | 161 °C

SMILES | melting point
CCCS(=O)(=O)N(CCN(C)C)c1ccc(N/C(=C2\C(=O)Nc3ccccc32)c2ccccc2)cc1 [Example 311, (Z)-3-{1-[4-(N-(2-dimethylaminoethyl)-N-propylsulphonyl-amino)-phenylamino]-1-phenyl-methylidene}-2-indolinone] | 245 °C
O=C1Nc2ccc([N+](=O)[O-])cc2/C1=C(/Nc1ccc(CN2CCC(C(=O)O)CC2)cc1)c1ccccc1 [Example 177, (Z)-3-{1-[4-(4-carboxypiperidinomethyl)-phenylamino]-1-phenyl-methylidene}-5-nitro-2-indolinone] | 207 °C
O=C1Nc2ccccc2/C1=C(/Nc1ccc(NCCN2CCOCC2)cc1)c1ccccc1 [Example 346, (Z)-3-{1-[4-(2-morpholinoethylamino)-phenylamino]-1-phenyl-methylidene}-2-indolinone] | 257 °C
COc1ccc(N/C(=C2\C(=O)Nc3ccccc32)c2ccccc2)cc1 [Example 2, (Z)-3-[1-(4-methoxy-phenylamino)-1-phenyl-methylidene]-2-indolinone] | 267 to 270 °C
CN(C)CCN(C)C(=O)CN(c1ccc(N/C(=C2\C(=O)Nc3ccc([N+](=O)[O-])cc32)c2ccccc2)cc1)S(C)(=O)=O [Example 294, (Z)-3-{1-[4-(N—((N-(2-dimethylaminoethyl)-N-methyl-amino)-carbonylmethyl)-N-methylsulphonyl-amino)-phenylamino]-1-phenyl-methylidene}-5-nitro-2-indolinone] | 138 to 140 °C
CN(C)CCNC(=O)CN(c1ccc(N/C(=C2\C(=O)Nc3ccccc32)c2ccccc2)cc1)S(C)(=O)=O [Example 194, (Z)-3-{1-[4-(N-(2-dimethylamino-ethylaminocarbonylmethyl)-N-methylsulphonyl-amino)-phenylamino]-1-phenyl-methylidene}-2-indolinone] | 214 to 216 °C
COCCNCc1ccc(N/C(=C2\C(=O)Nc3ccc([N+](=O)[O-])cc32)c2ccccc2)cc1 [Example 174, (Z)-3-{1-[4-(2-methoxyethylaminomethyl)-phenylamino]-1-phenyl-methylidene}-5-nitro-2-indolinone] | 184 to 185 °C
NC(=O)C1CCN(Cc2ccc(N/C(=C3\C(=O)Nc4ccc([N+](=O)[O-])cc43)c3ccccc3)cc2)CC1 [Example 247, (Z)-3-{1-[4-(4-aminocarbonyl-piperidinomethyl)-phenylamino]-1-phenyl-methylidene}-5-nitro-2-indolinone] | 296 to 297 °C
CN(C)CCNS(=O)(=O)c1ccc(N/C(=C2\C(=O)Nc3ccc([N+](=O)[O-])cc32)c2ccccc2)cc1 [Example 401, (Z)-3-{1-[4-(2-dimethylamino-ethylaminosulphonyl)-phenylamino]-1-phenyl-methylidene}-5-nitro-2-indolinone] | 260 to 261 °C
CCOC(=O)CNCCc1ccc(N/C(=C2\C(=O)Nc3ccc([N+](=O)[O-])cc32)c2ccccc2)cc1 [Example 178, (Z)-3-{1-[4-(2-ethoxycarbonylmethylamino-ethyl)-phenylamino]-1-phenyl-methylidene}-5-nitro-2-indolinone] | 139 to 140 °C
COC(=O)C(Cc1ccc(N/C(=C2\C(=O)Nc3ccc([N+](=O)[O-])cc32)c2ccccc2)cc1)NC(=O)OC(C)(C)C (stereo not drawn) [Example 225, (Z)-3-{1-[4-(2-tert.butoxycarbonylamino-2-methoxycarbonyl-ethyl)-phenylamino]-1-phenyl-methylidene}-5-nitro-2-indolinone] | 139 °C
CN(C)CCNC(=O)CN(c1cccc(N/C(=C2\C(=O)Nc3ccccc32)c2ccccc2)c1)S(C)(=O)=O [Example 322, (Z)-3-{1-[3-(N-(2-dimethylamino-ethylaminocarbonylmethyl)-N-methylsulphonyl-amino)-phenylamino]-1-phenyl-methylidene}-2-indolinone] | 179 to 181 °C
CN(C)C(=O)CN(c1ccc(N/C(=C2\C(=O)Nc3ccccc32)c2ccccc2)cc1)S(=O)(=O)c1ccccc1 [Example 205, (Z)-3-{1-[4-(N-dimethylaminocarbonylmethyl-N-phenylsulphonyl-amino)-phenylamino]-1-phenyl-methylidene}-2-indolinone] | 255 to 258 °C
CN(C)CCN(C)C(=O)CN(c1cccc(N/C(=C2\C(=O)Nc3ccccc32)c2ccccc2)c1)S(C)(=O)=O [Example 323, (Z)-3-{1-[3-(N—((N-(2-dimethylaminoethyl)-N-methyl-amino)-carbonylmethyl)-N-methylsulphonyl-amino)-phenylamino]-1-phenyl-methylidene}-2-indolinone] | 197 to 199 °C
CCCC(=O)N(CCN(C)C)c1ccc(N/C(=C2\C(=O)Nc3ccccc32)c2ccccc2)cc1 [Example 343, (Z)-3-{1-[4-(N-(2-dimethylaminoethyl)-N-propylcarbonyl-amino)-phenylamino]-1-phenyl-methylidene}-2-indolinone] | 268 to 270 °C
CCOC(=O)CN(c1ccc(N/C(=C2\C(=O)Nc3ccccc32)c2ccccc2)cc1)S(=O)(=O)CC [Example 297, (Z)-3-{1-[4-(N-ethoxycarbonylmethyl-N-ethylsulphonyl-amino)-phenylamino]-1-phenyl-methylidene}-2-indolinone] | 228 to 230 °C
